This note sets out measurements from patent US7258861B2, “TNF-derived peptides for use in treating oedema” (Innogenetics N.V., priority 2001, dated 2007).

Where “and” joins values, the source holds several entries; their conditions need not be identical. Equal entries are not always repeated. Positions of bridges follow the written chain, without caps; N, C: chain ends. Residues, ends and D or L forms follow the SMILES beside them. No end group written: not given here. *: point of attachment. Biotin = O=C1N[C@H]2[C@H](CS[C@H]2CCCCC(=O)*)N1

Data set [1] deals with ex vivo instilled rat lung. Briefly: Ex vivo rat flooded lung, model of hydrostatic edema. As for the experimental part:
In this model edema is induced by instillating 2 ml of 0.9% NaCl solution intratracheally. Alternatively, edema formation can be modulated by varying the height of the venous outflow and the perfusion buffer containing reservoir, or alternatively by varying the time the lung is exposed to the elevated pressure. […] The clearance of alveolar fluid from the lung is calculated by means of measuring the concentration of HSA, which is added to the instillate over time. Alternatively, the over time weight loss as a measure of edema resorption (high weight loss is high liquid clearance), of the artificially instilled lung can be measured. The lung tidal volume, compliance and weight are monitored continuously during the experiment. At the end of the experiment bronchoalveolar fluid and supernatant of lung homogenate is taken for measurement of inflammatory mediators.
The lungs of female Wistar rats (weight 200–250 g; Harlan-Winkelmann, Borchen, Germany) are prepared after terminal i.p. anesthesia by 160 mg/kg pentobarbitural —Na (Merial Ltd, Halbermoos, Germany) and perfused as described by Uhlig and Wolin (1994), and by Uhlig and von Bethmann (1997). All equipment is obtained from Hugo Sachs Electronics (March-Hugstetten, Germany). […] As perfusion medium, a Krebs-Henseleit buffer (38° C.) containing 2% bovine serum albumin (Fraction V, Scrva. Heidelberg, Germany), 0.1% glucose (Riedel-de-Haën Inc., Seelze, Germany), and 0.3% HEPES (ICN Biomedicals Inc., Ohio, USA) is used. The total amount of recirculating buffer is 100 ml. The lungs are suspended by the trachea and ventilated by negative pressure ventilation (inspiratory pressure: −7 cm H2O, expiratory pressure: −2 cm H2O) with 80 breaths per minute resulting in a tidal volume of approximately 2 ml. Every 5 minutes, a deep inspiratory breath (−20 cm H2O) is performed. Artificial thorax chamber pressure is measured with a differential pressure transducer (Validyne DP 45-14), and an air flow velocity with a pneumotachograh tube (Fleisch Type 0000) connected to a differential pressure transducer (Validyne DP 45-15). The perfusate flow (Narcomatic RT-500) and the arterial and venous pressure (Statham P23BB) are continuously monitored. The pH of the perfusate before entering the lung is kept at 7.25 to 7.35 by automatic bubbling of the buffer with CO2 as soon as the pH exceeds this range. A weight transducer is integrated into the chamber lid which allows the continuous assessment of lung weight. Data are recorded on a Pentium II computer using the Mathlab Sofware package (Mathworks, Inc., Nattick Mass., USA). For lung mechanics, the data are analyzed by applying the following formula: P=1/C*VT+RLdV/dT
Where P is chamber pressure, C pulmonary compliance, VT tidal volume, and RL airway resistance. All lung physiology parameters were normalized to time point 0, i.e. after the end of the preconditioning perfusion of 40 minutes.

For data set [2], the system named is lung microvascular endothelial cells. Briefly: Whole-cell patch clamp, membrane conductance in lung microvascular endothelial cells. The class given is cell-based, mouse. The settings on record: 30 min preincubation at acidic pH (pH 6); TNF, mutTNF 100 ng/ml, peptides 100 μg/ml. The text has this:
Animals, cells and reagents. Male CBA/J or C57BL/6 mice, as well as male TNFR ½^0/0 C57BL/6 mice deficient in TNF receptors (Bruce et al., 1996) provided by H. Bluethmann, F. Hoffmann-La Roche, Basel, Switzerland, were used at the age of 8–10 weeks. Their care was in accordance with institutional guidelines. Lung microvascular endothelial cells were isolated from CBA/J mice and characterized as described (Jackson et al., 1990) using magnetic beads (Dynabeads M-450, Dynal, Oslo, Norway), covalently bound to a purified rat-anti-mouse PECAM-1 monoclonal antibody (donated by B. Imhof, University of Geneva). Microvascular lung endothelial cells were resuspended in DMEM containing 2 mM L-glutamine, 100 U/ml penicillin, […], 20% FCS, 40 U/ml heparin and […] endothelial cell growth supplement (Brunschwig Chemie, Basel, Switzerland). For patch clamp experiments, cells were plated onto 35×10 mm easy grip Petri dishes (Beckton Dickinson, Plymouth, UK), pre-coated with 0.2% gelatin (Sigma, Buchs, Switzerland). Resident peritoneal macrophages, isolated in ice cold RPMI containing antibiotics and 10 U/ml Heparin, were left to adhere onto 35×10 mm easy grip Petri dishes for 4 h, after which the non-adherent cells were removed. Cells were grown in RPMI 1640 containing 2 mM L-glutamine, 100 U/ml penicillin, 10 μpg/ml streptomycin and 10% fetal bovine serum (all from Gibco). For patch clamp, the macrophages ware used 24 h after isolation.
Electrophysiology. Cells were pretreated for 30 min with TNF, mutTNF and tip peptides at 37° C. in a buffer consisting of 145 mM NaCl, 3 mM KCl, 2mM CaCl2, 2mM MgCl2, 10 mM D-glucose, and 10mM Hepes, and pH-adjusted with NaOH to required value. Cells were then washed with the same buffer pH-adjusted at 7.3, and experiments were performed using the tight-seal, whole-cell recording technique. Currents were recorded with an Axopatch-200A amplifier (Axon Instrument Inc, Foster City, Calif., USA), low pass-filtered at 1 kHz. Digitalization and off-line analysis was performed using the WCP program (J. Dempster, Strathclyde Electrophysiology Software, Glasgow, UK). Patch pipettes were pulled from borosilicate glass and fire polished to have an open resistance of 3–5 MW with an internal solution containing […], 2 mM MgCl2, 10mM EGTA, 20 mM TEA-Cl, 10 mM D-glucose 10 mM Hepes, pH-adjusted to 7.3 with CsOH. Series resistances were kept under 10 MW. Capacitance and series resistance compensation were applied and set to 70%. All experiments were done at room temperature. Results are given as mean ±SEM, unless otherwise indicated. Analysis of variance was performed on currents and membrane conductance values, with post-hoc Dunn-Bonferroni test for significance of differences observed between two groups. A P value of 0.05 was considered significant.
In general terms: Patch clamp records ionic current or voltage across a cell membrane.

Another data set concerns isolated rat lungs. Briefly: Isolated blood perfused flooded rat lung (weight, lung mechanics, PV curves, histology). The settings on record: pretreated lungs after flooding and 2 hours reperfusion.
Setting [3] is: measured 80 minutes after instillation, summary in words.

Procedure for isolated rat lungs: Rats. For the ex vivo experiments, 31 Sprague-Dawley rats (300 to 350 g) were tracheotomized and mechanically ventilated (40% oxygen in air) under isoflurane anesthesia. The experimental protocol was reviewed and approved by the Ethics Committee for Animal Research and by the Veterinary Office of our institution. The femoral vessels were cannulated for blood sampling, fluid replacement, and continuous arterial blood pressure monitoring. Following anticoagulation (1.5 IU/g i.v. heparin), 20 ml of blood were withdrawn and replaced by an equal volume of dextran-40 (Macrodex 10% in normosaline) to serve as priming volume for the isolated perfusion circuit. The heart-lung block was prepared as described by Ma et al., 2000, weighed and assigned to one of four groups. […] The lungs were suspended, mechanically ventilated, and perfused at constant pressure with autologous blood as described by Ma et al., 2000.
An inspiratory and expiratory quasi-static pressure-volume (PV) curve was performed at the end of the 2-hour reperfusion period by inflating and then deflating the lungs at a constant rate (0.3 ml/sec) using an automated infusion pump. A sigh was applied in all groups every 15 minutes to minimize atelectasis formation. The blood pH was maintained between 7.3 and 7.5 and, if necessary, corrected with sodium bicarbonate 8.4% or a change of the inspired CO2 as required by the blood gas analysis. Every 30 minutes, a blood sample was collected for blood gas analysis as well as for hematocrit and electrolyte concentration.
Inclusion criteria. Immediately following the start of reperfusion, the preparation had to fulfill three technical inclusion criteria: • 1) left atrial pressure (LAP) 5-10 mmHg; • 2) peak airway pressure (AWP) <15 cmH2O; and • 3) pulmonary blood flow (PBF) >10 ml/min. […] The included lungs were then flooded with gentle intratracheal instillation of 2 ml normal saline and the recorded variables measured for 2 subsequent hours.
Histological analysis. Random lung samples were fixed for light and electron microscopy and analyzed by pathologists blinded to the lung's protocol group assignment.

For the compound “CGQRETPEGAEAKPWY (Biotin-CGQRETPEGAEAKPWY) [linear hum Ltip]”, the “activity in fluid clearance” value in data set [1] (setting [3]) is recorded as “equally active”; in data set [1] (measuring for 100 minutes after instillation, summary in words) it was “less active”. Besides, in data set [1] (synthetic peptide 1000 μg/lung), the “Weight loss of ex vivo instilled rat lung over 80 min” value (shortened to “Weight loss … over 80 min”) is 498 mg and 863 mg and 585 mg and 462 mg.
Turning to “CTPEGAEC (Biotin-CTPEGAEC; cysteine pairing not given here; listed as Mus musculus) [STip]”, in data set [2], the “whole cell current / membrane conductance” value was “failed to induce a voltage-dependent current”. In addition, in data set [1] (setting [3]), the “activity in fluid clearance” value is given as “equally active”. Besides, in data set [1] (synthetic peptide 1000 μg/lung), the “Weight loss … over 80 min” value was 507 mg and 607 mg and 781 mg and 703 mg and 744 mg; the “Weight loss of ex vivo instilled rat lung over 100 min” value was 836 mg and 535 mg and 684 mg and 891 mg and 849 mg.
Take `CC(C)C[C@@H]1NC(=O)[C@H](CCC(=O)O)NC(=O)[C@H](Cc2c[nH]c3ccccc23)NC(=O)[C@@H]2CCCN2C(=O)[C@H](CCCCN)NC(=O)[C@H]([C@@H](C)O)NC(=O)CNC(=O)[C@@H](N)CSSC[C@@H](C(=O)O)NC(=O)[C@H](Cc2ccc(O)cc2)NC(=O)[C@H](C)NC(=O)[C@@H]2CCCN2C(=O)[C@H](CCCCN)NC(=O)[C@H](CCC(=O)O)NC(=O)[C@H](CC(=O)O)NC(=O)[C@@H]2CCCN2C(=O)CNC1=O` [cyclic mu scrambl Tip, reference compound] (H-CGTKPWELGPDEKPAYC-OH; disulfide 1-17): in the data set with isolated rat lungs, the “endothelial flaps and epithelial blebs (electron microscopy)” value was “less evident”.
As for `CC(C)(C)NCC(O)c1cc(O)cc(O)c1` (centres unmarked) [Terbutaline, reference compound], the “Weight loss … over 80 min” value in data set [1] (Terbutalin 1 mM alone, individual lungs) was 1035 mg and 872 mg and 1219 mg and 1119 mg and 822 mg and 1075 mg and 675 mg and 730 mg and 1000 mg and 923 mg and 880 mg and 702 mg. Besides, the “Weight loss of ex vivo instilled rat lung over 100 min” value in data set [1] (Terbutaline 1 mM + Chitobiose 500 μg) was 800 mg; in data set [1] (Terbutaline 1 mM alone, individual lungs), 805 mg and 1223 mg and 1425 mg and 1370 mg. Besides, the “clearing alveolar fluid content ex vivo” value in data set [1] (after intratracheal instillation, summary in words) is reported as “capable of clearing alveolar fluid content”.
“GG-COTKPWELOPDEKPAYC [scramblTip, reference compound]”: the “whole cell current / membrane conductance” value in data set [2] is “inactive”.
In the case of “GG-CCIPKDAPAGAALKPWYC [mutTip, reference compound]”, the “whole cell current / membrane conductance” value in data set [2] is “inactive”.
